The text below walks through data of PubChem BioAssay (NCI).

What all share (assay): NCI-60 cell line screen, 48 h
The test system of assay [1] is EKVX NSCLC.
For assay [2], the system named is HS 578T breast.
For assay [3], the system named is HT29 colon.
In assay [4] the test system is IGROV1 ovarian.
Assay [5] concerns M14 melanoma.
In assay [6] the test system is NCI-H522 lung.
Assay [7] deals with OVCAR-8 ovarian.
In assay [8] the test system is SF-539 CNS.
The test system of assay [9] is SK-MEL-2 melanoma.
Assay [10] relates to SNB-75 CNS.

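Exposure lasted 48 hours, with cells grown in 96-well plates and compounds tested at five concentrations. The concentration for 50% growth inhibition is given as GI50. Definition used: TGI = concentration required for complete inhibition of growth.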 A value given as a limit tells only on which side of the number the result lay.

Consider `Cn1ncc2c(Nc3ccc(Br)cc3)nc(Nc3ccc(Br)cc3)nc21`, for which the GI50 in [1] is 2.48 µM; in [2], 2.61 µM; in [3], 2.03 µM; in [4] it was 3.22 µM; in assay [5], 2.09 µM; in assay [6], 3.44 µM. The GI50 was 4.15 µM in assay [7], 3.17 µM in assay [8], 2.89 µM in [9] and 2.23 µM in [10]. In addition, the TGI was 9.73 µM in [1]; 9.59 µM in assay [2]; 4.32 µM in [3]; 16.7 µM in assay [4]; 4.63 µM in [5]; 15.7 µM in assay [6]. Also, the TGI in assay [7] is 63.5 µM; in assay [8], 10.8 µM; in [9] it was 8.56 µM; in assay [10], 12.5 µM.

Regarding `COc1cc(OC)c(-c2cc(=O)c3c(OC)c(OC)c(OC)c(OC)c3o2)cc1OC`, the TGI in assay [1], in assay [2], in [3], in [4], in assay [5] and in assay [6] was above 100 µM each time. Besides, the TGI in assay [7] was above 100 µM; in [8] it was above 100 µM; in [9], above 100 µM; in assay [10], above 73.9 µM.

As to `CCCOC(=O)N[C@H]1CCc2c(Br)c(OC)c(OC)c(OC)c2-c2ccc(SC)c(=O)cc21`, the GI50 is 0.0474 µM in assay [1]; 0.0321 µM in assay [2]; 0.0297 µM in assay [3]; 0.0377 µM in assay [4]; 0.0207 µM in [5]; below 0.0119 µM in assay [6]. Further, the GI50 in assay [7] is 0.0438 µM; in [8] it was 0.0213 µM; in assay [9], 2.44 µM; in assay [10], 0.0262 µM. Besides, the TGI in [1] was above 100 µM; in assay [2] it was 49.1 µM; in assay [3], above 48 µM; in [4], above 46.2 µM; in assay [5] it was 3.67 µM; in assay [6] it was 0.558 µM. The TGI in [7] is above 100 µM; in assay [8] it was 0.0688 µM; in assay [9], 37.1 µM; in [10], 25.5 µM.

As for `COc1ccccc1-c1cc2c3c(nc4ccccc42)C(=O)c2cccnc2-c3n1`, the GI50 in assay [1] was 14.8 µM; in assay [2] it was 17.9 µM; in assay [3], 15.3 µM; in [4], 3.78 µM; in [5], 5.1 µM; in [6], 1.65 µM. The GI50 in assay [7] is 8.01 µM; in assay [8], 14.8 µM; in assay [9] it was 17.5 µM; in [10], 8.89 µM. The TGI in assay [1] turned out to be 45.4 µM; in assay [2] it was 37.9 µM; in [3], 29.9 µM; in assay [4], 18.1 µM; in assay [5] it was 17.3 µM; in assay [6], 5.23 µM. For the same molecule, the TGI in assay [7] is 28.6 µM; in assay [8], 35.4 µM; in assay [9], 47.8 µM; in assay [10] it was 22.6 µM.

In the case of `CCN(CC)c1ccc(NC(C(=O)c2ccccc2)c2ccccc2)cc1` (stereo not given), the GI50 was 3.59 µM in [1]; 3.41 µM in assay [2]; 3.19 µM in [3]; 4.31 µM in assay [4]; 2.16 µM in [5]; 2.3 µM in [6]. In addition, the GI50 in assay [7] is 3.28 µM; in assay [8], 2.11 µM; in assay [9], 3.44 µM; in assay [10] it was 2.24 µM. The TGI in [1] was 14.4 µM; in assay [2], 47.1 µM; in assay [3] it was above 100 µM; in [4], 18.1 µM; in assay [5] it was 5.91 µM; in assay [6] it was 7.05 µM. In addition, the TGI in assay [7] was above 100 µM; in assay [8], 4.98 µM; in assay [9] it was 16.8 µM; in assay [10], 10.7 µM.

`C[C@@H]1O[C@@H](O[C@H]2C[C@@H](O)[C@]3(CO)C4C(CC[C@]3(O)C2)[C@@]2(O)CC[C@H](C3=CC(=O)OC3)[C@@]2(C)C[C@H]4O)[C@H](O)[C@H](O)[C@H]1O` (stereo not given in full): the GI50 in assay [1] is 0.0151 µM; in [2] it was 0.0182 µM; in assay [3], 0.0248 µM; in assay [4], 0.0273 µM; in assay [5], 0.0855 µM; in assay [6] it was 0.0117 µM. Besides, the GI50 in [7] was 0.0189 µM; in [8], 0.0185 µM; in [9], 0.0655 µM; in assay [10] it was 0.0277 µM. Besides, the TGI in [1] is 0.0518 µM; in [2], 4.32 µM; in assay [3] it was 0.0836 µM; in assay [4], 0.23 µM; in [5] it was 0.166 µM; in assay [6], 0.0323 µM. For the same molecule, the TGI in [7] was 0.0691 µM; in assay [8] it was 0.0599 µM; in [9] it was 0.17 µM; in [10], 0.0946 µM.

Regarding `COc1ccc2c(c1)C(=O)c1c-2c(NCCCN(C)C)nc2ccccc12`, the GI50 in [1] is 5.54 µM; in assay [2], 3.7 µM; in assay [3] it was 1.02 µM; in assay [4], 6.99 µM; in assay [5] it was 5.41 µM; in assay [6] it was 9.79 µM. The GI50 in [7] is 1.74 µM; in assay [8], 10.8 µM; in [9], 18.4 µM; in [10], 0.997 µM. The TGI in assay [1] came to 23.1 µM; in [2], 16 µM; in [3] it was 2.82 µM; in [4] it was 19.9 µM; in assay [5], 17.9 µM; in [6] it was 23.4 µM. In addition, the TGI in assay [7] is 7.67 µM; in assay [8], 24.6 µM; in [9] it was 34.3 µM; in [10] it was 11.8 µM.
